Source: US9005646B2, “Compositions for repair of defects in tissues, and methods of making the same” (LifeNet Health, priority 2005, dated 2015)

What was measured:
[1] = test system: athymic nude mice; experiment: Osteoinductivity bioassay of irradiated compositions with radioprotectant, implanted into athymic nude mice; type: in vivo; settings: for Passed Osteoinductivity: radioprotectant added to homogenized fascia slurry of tissue repair composition, post-gamma irradiation, implanted into athymic nude mice
Text: (§1) Multiple radioprotectants (Table 1) were investigated over a range of concentrations and the handling characteristics of the resultant products were semi-quantitatively analyzed post-gamma irradiation. Those products that passed the semi-quantitative analysis went on to be implanted into athymic nude mice as a bioassay to assess osteoinductivity.
The method to add the radioprotectant was consistent for each radioprotectant investigated. The slurry was made as described in example 1 (heating and blending cycles) and once completed, the radioprotectant of choice was added to the slurry in the form it was supplied from the manufacturer (powder or liquid).

[2] = Semi-quantitative analysis of handling characteristics post-gamma irradiation; type: physicochemical; settings: putty/paste tissue repair composition; sterilizing dose of gamma irradiation; 100 mM where radioprotectant present
Text: To meet the current U.S. FDA regulatory standards and market expectations, a product must be sterile to a sterility assurance level of 1×10^−6 (SAL). […] The composition crumbled apart releasing the bone matrix.
In order to manufacture a tissue repair composition, in the form of a putty/paste, having desirable handling characteristics post-irradiation at dose designed to achieve a SAL of 1×10^−6, it was thought that the addition of one or more radioprotectants to the composition would produce a product with the desirable handling properties because the radioprotectant will act as a free radical scavenger during the irradiation sterilization process and would protect the handling characteristics of the putty/paste composition. An addition facet was that the radioprotectant must not negatively interfere with the biological activity over time (shelf life).
as §1

Row | handling characteristics after gamma irradiation [2] | Compound | Passed Osteoinductivity [1] | impact on osteoinductivity ([1]; 100 mM radioprotectant in composition, after sterilizing dose of gamma irradiation)
1 | – | L-Ascorbic Acid, salt | Yes | –
2 | no negative impact | N=C(N)NN [Aminoguanidine] | Yes | no negative impact
3 | – | L-Ascorbic Acid 2-phosphate sesquimagnesium salt | Yes | –
